Assay results from article PMC9828538, “Antigiardial Activity of Novel Guanidine Compounds” (Chemmedchem, 2022).
In brackets after ≈: the same amount, converted by molar mass. Where a name gives a salt, the structure may show the parent alone. Read-outs that look alike come from different tables or passages of the source.

Legend:
[1] = system: Giardia duodenalis trophozoites (BAH2c2 strain); experiment: Resazurin reduction assay on Giardia trophozoites in vitro; assay type: cell-based; details: for MIC: minimum inhibitory concentration, read-out: Antigiardial activity MIC (24 h); for Antigiardial activity at 5 h: 25 μM; for Selectivity ratio: higher ratios = more selective; for Antigiardial activity MLC (24 h): minimum lethal concentration
From the text: (§1) Biology Materials and Methods:
Metronidazole was sourced from sigma.
Chemicals used for the culture of Giardia in vitro were sourced as follows: glucose and L-cysteine (ACROS organics, Thermo Fisher Scientific, Scoresby, Vic), Ammonium Iron (III) citrate, ascorbic Acid (Sigma -aldrich, Castle Hill, NSW), potassium dihydrogen orthophosphate (UNIVAR, Ingleburn, NSW), bovine bi le (Fluka analytical (BD)), di-potassium hydrogen orthophosphate (Fronine laboratory supplies, Riverstone, NSW).
G. duodenalis (BAH2c2 strain) was cultivated according to the method of Clark and Diamond in Keister’s modified TYI-S-33 medium, supplemented with heat inactivated foetal bovine serum (Hyclone™, Thermo Scientific, Scoresby, Vic) at 37°C in plastic 9 mL screw-capped test tubes (nunc). Subcultures were performed once a confluent monolayer was observed, approximately 2 – 3 times per week (Clark and Diamond, 2002).
(§2) CaCo-2 cells, a human cell line derived from a primary colonic tumour, were sourced from Cellbank Australia and were maintained in MEM supplemented with 2 mM glutamine, 1% non-essential amino acids and 10% FCS (Thermo Scientific). Cells were passaged when confluent, approximately 1-2 times per week. Vero cells were also obtained from Cellbank Australia and maintained as above.
(§3) In vitro drug efficacy assays
Resazurin Reduction Assay […]
tested to identify the IC50 and minimum lethal concentration (MLC). For all assays the media of confluent cultures was replaced with fresh media and the cultures were placed on ice for 40 minutes to detach trophozoites.
Trophozoites were enumerated using a haemocytometer and 50 000 trophozoites were added to each test well of a 96 well plate. Either single concentrations (final concentration 25 μM) for the screening assay or tripling dilutions […]
wells. The assays were repeated in triplicate with metronidazole and a DMSO (vehicle only) used as controls. Plates were incubated under anaerobic conditions (anaerogen sachet, Thermofisher scientific) for 5 or 24 hours at 37°C following which the viability of treated cells was determined using the resazurin reduction assay (Benere et al., 2007). The media was removed and replaced with an equal volume of warm PBS. Resazurin (Sigma) was then added at 10% of the total volume of the wells. Plates were further incubated for colour development and absorbance read at 570 nm and 630 nm. Resazurin reduction was calculated according to the following formula: […]
(§4) CaCo-2 or Vero cells, maintained as outlined above, were collected via trypsinisation and enumerated using trypan blue and a haemocytometer. Select analogues were prepared in DMSO so that the final concentration in the assay was 25 μM. 1 X 10^5 cells/ml were added to each assay with the appropriate drug dilution. Assays were completed in 96 well plates and incubated for 24 hours at 37°C, 5% CO2 in a humidified incubator. After incubation cells were […]
(§5) washed with warm PBS before the addition of 10% resazurin in PBS. Assays were incubated to allow colour development and absorbance read at 630 and 570nm. Activity of the analogues against mammalian cells was calculated according to the formula stated above.

Vero cells = experiment: In vitro cytotoxicity, Vero cells; details: 25 μM; for Toxicity (% growth control): Percent Vero cell growth; for Toxicity (% growth control) / Toxicity (Y/N): 24 h
Experimental: (§6) Biology Materials and Methods: […]
as §2
(§7) In vitro drug efficacy assays […]
(§8) The media was removed and replaced with an equal volume of warm PBS. Resazurin (Sigma) was then added at 10% of the total volume of the wells. Plates were further incubated for colour development and absorbance read at 570 nm and 630 nm. Resazurin reduction was calculated according to the following formula: […]
CaCo-2 or Vero cells, maintained as outlined above, were collected via trypsinisation and enumerated using trypan blue and a haemocytometer. Select analogues were prepared in DMSO so that the final concentration in the assay […]
in 96 well plates and incubated for 24 hours at 37°C, 5% CO2 in a humidified incubator. After incubation cells were […]
washed with warm PBS before the addition of 10% resazurin in PBS. Assays were incubated to allow colour development and absorbance read at 630 and 570nm. Activity of the analogues against mammalian cells was calculated according to the formula stated above. […]
reduction assay the mean and standard error of the mean was determined with each assay completed in triplicate.
The IC50 was calculated using the log (inhibitor) vs. normalised response – variable slope function in Graphpad […]

CaCo-2 cells = details: human, 24 h, 25 μM
Experimental: as §6, §2, §7
as §8, with “2007). The” for “The”
as §4, §5

Escherichia coli = experiment: Antibacterial activity against gram negative bacteria (E. coli); assay type: cell-based
Experimental: as §1
Metronidazole was sourced from sigma. […]
hydrogen orthophosphate (Fronine laboratory supplies, Riverstone, NSW).
Subcultures were performed once a confluent
Scientific). […] Vero cells were also obtained from Cellbank Australia and maintained as above.
as §3
Resazurin Reduction Assay
For all assays the media of confluent cultures
2007). […] Resazurin (Sigma) was then
Plates were further incubated for colour development and absorbance read at 570 nm and 630 nm. Resazurin reduction was calculated according to the following formula: […]
broth for a random selection of compounds (Thermofisher Scientific). Compounds were diluted in DMSO to 100X […]
Cells were incubated for 18-24 hrs before interpretation of results. […]
blue and a haemocytometer. […]
was 25 μM. […] Assays were completed
After incubation cells were […]

Giardia = system: Giardia; parameters: method as in PMID 14585063; details: drug treatment of Giardia infection; cited from earlier work
[2] = Giardia duodenalis, 24 h, read-out: Antigiardial activity IC50 (24 h)
[3] = toxicity tested at 25 μM vs 5 h IC50, Table 4
[4] = Vero cells, Table 4 (toxic if >10 % cells affected)
[5] = 24 h, read-out: Antigiardial activity IC50 (24 h)
[6] = toxicity tested at 25 μM vs 24 h IC50, Tables 1-3
[7] = Vero cells, Tables 1-3 (toxic if >20 % cells affected)
[8] = Giardia duodenalis, 5 h, read-out: Antigiardial activity IC50 (5 h)

SMILES	IC50 [1, 2] [nM]	MIC ([1]; Giardia duodenalis, 24 h) [µM]	further results
N=C(NN=Cc1ccc(-c2ccccc2)cc1)NN=Cc1ccc(-c2ccccc2)cc1 [Compound 17]	400	2.8 (≈ 1.17 µg/mL)	–
N=C(NN=Cc1cccc(Cl)c1)NN=Cc1cccc(Cl)c1 [Compound 8]	3500	6.25 (≈ 2.09 µg/mL)	–
COc1cccc(C=NNC(=N)NN=Cc2cccc(OC)c2)c1 [Compound 25]	> 25000	–	–
Cl.N=C(NN=Cc1cc(F)ccc1F)NN=Cc1cc(F)ccc1F [Compound 37]	–	–	Antigiardial activity at 5 h ([1]; 5 h): inactive
Cl.N=C(NN=Cc1ccc(Cl)cc1Cl)NN=Cc1ccc(Cl)cc1Cl [Compound 34]	–	–	Selectivity ratio [1, 3]: >10.0; Toxicity (% growth control) (Vero cells): 55.8±4.3%; Toxicity (Y/N) (Vero cells; [4]): Y (compounds are indicated as toxic if >10 % cells are affected)
CC(C)(C)c1ccc(C=NNC(=N)NN=Cc2ccc(C(C)(C)C)cc2)cc1 [Compound 22]	3200	8.3 (≈ 3.13 µg/mL)	–
COc1ccccc1C=NNC(=N)NN=Cc1ccccc1OC.Cl [Compound 26]	–	–	Antigiardial activity MLC (24 h) ([1]; 24 h): >25 µM; IC50 [1, 5]: > 25000 nM
N=C(NN=Cc1cccc(Br)c1)NN=Cc1cccc(Br)c1 [Compound 9]	2900	25 (≈ 10.6 µg/mL)	–
Cl.N=C(NN=Cc1ccc(Br)cc1)NN=Cc1ccc(Br)cc1 [Compound 6]	1700	8.3	Selectivity ratio [1, 6]: >14.7; Toxicity (% growth control) (CaCo-2 cells): 97.1±1.6%; cell death (CaCo-2 cells): < 10%; cell death (Vero cells; Vero cells): < 10%; Activity against gram negative bacteria / E. coli (Escherichia coli): no antibacterial activity
N=C(NN=Cc1ccc(O)cc1)NN=Cc1ccc(O)cc1 [Compound 27]	> 25000	–	–
Cc1ccccc1C=NNC(=N)NN=Cc1ccccc1C [Compound 16]	–	25 (≈ 7.33 µg/mL)	–
CCCSc1ccc2nc(NC(=O)OC)[nH]c2c1 [albendazole]	–	–	treatment success / reported efficacy (Giardia): 62–95%
COc1ccc(C=NNC(=N)NN=Cc2ccc(OC)cc2)cc1.Cl [Compound 24]	5990	–	Selectivity ratio [1, 6]: >4.2; Toxicity (Y/N) (Vero cells; [7]): Y^[e] (compounds are indicated as toxic if >20 % cells are affected)
Cl.N=C(NN=Cc1ccccc1Br)NN=Cc1ccccc1Br [Compound 11]	800	25	Selectivity ratio [1, 6]: >31.3; Toxicity (% growth control) (CaCo-2 cells): 79.1±2.3%; Activity against gram negative bacteria / E. coli (Escherichia coli): no antibacterial activity
CCCCc1ccc(C=NNC(=N)NN=Cc2ccc(CCCC)cc2)cc1 [Compound 20]	1900	8.3 (≈ 3.13 µg/mL)	–
COc1ccc(C=NNC(=N)NN=Cc2ccc(OC)c(OC)c2)cc1OC [Compound 44]	–	–	IC50 ([1]; 5 h, read-out: Antigiardial activity IC50 (5 h)): 24900 nM; IC50 [1, 8]: ≤ 25000 nM
N=C(NN=Cc1cccc(F)c1)NN=Cc1cccc(F)c1 [Compound 10]	> 25000	> 25	–
CC(=O)Nc1cc(Cl)ccc1C=NNC(=N)NN=Cc1ccc(Cl)cc1NC(C)=O.Cl [Compound 40]	–	–	IC50 [1, 8]: 800 nM; Selectivity ratio [1, 3]: >31.3; Toxicity (% growth control) (CaCo-2 cells): 83.1±4.4%
C#Cc1cccc(C=NNC(=N)NN=Cc2cccc(C#C)c2)c1 [Compound 23]	1200	25 (≈ 7.83 µg/mL)	–

SMILES	IC50 [1, 2] [nM]	MIC ([1]; Giardia duodenalis, 24 h) [µM]	further results
Cc1ccc(C=NNC(=N)NN=Cc2ccc(C)cc2)cc1 [Compound 14]	–	25 (≈ 7.33 µg/mL)	–
N=C(NN=Cc1ccc(OC(F)(F)F)cc1)NN=Cc1ccc(OC(F)(F)F)cc1 [Compound 30, 2,2′‐bis{[4‐(trifluoromethoxy)phenyl]methylene}carbonimidic dihydrazide hydrochloride]	200	–	–
Cl.N=C(NN=Cc1ccccc1-c1ccccc1)NN=Cc1ccccc1-c1ccccc1 [Compound 18]	2800	> 25	Selectivity ratio [1, 6]: >8.9; Toxicity (% growth control) (CaCo-2 cells): 75.4±3.4%
Cl.N=C(NN=Cc1ccccc1F)NN=Cc1ccccc1F [Compound 13]	> 25000	> 25	Toxicity (% growth control) (Vero cells): 93.9±1.9%; Toxicity (Y/N) (Vero cells; [7]): N (compounds are indicated as toxic if >20 % cells are affected)
N=C(NN=Cc1ccc(F)cc1)NN=Cc1ccc(F)cc1 [Compound 7]	6520	12.5 (≈ 3.77 µg/mL)	–
CCS(=O)(=O)CCn1c([N+](=O)[O-])cnc1C [tinidazole]	–	–	treatment success / reported efficacy (Giardia): 80–90%
N=C(NN=Cc1ccc(SC(F)(F)F)cc1)NN=Cc1ccc(SC(F)(F)F)cc1 [Compound 32, 2,2′‐bis{[4‐(trifluoromethylsulfanyl)phenyl]methylene}carbonimidic dihydrazide hydrochloride]	200	–	–
Cc1cccc(C=NNC(=N)NN=Cc2cccc(C)c2)c1 [Compound 15]	4900	6.25 (≈ 1.83 µg/mL)	–
CSc1ccc(C=NNC(=N)NN=Cc2ccc(SC)cc2)cc1 [Compound 31]	900	–	–
N=C(NN=Cc1ccccc1O)NN=Cc1ccccc1O [Compound 29]	> 25000	–	–
Cl.N=C(NN=Cc1c(F)c(F)c(F)c(F)c1F)NN=Cc1c(F)c(F)c(F)c(F)c1F [Compound 39]	–	–	Antigiardial activity at 5 h ([1]; 5 h): inactive
CC(C)c1ccc(C=NNC(=N)NN=Cc2ccc(C(C)C)cc2)cc1 [Compound 21]	1900	6.25 (≈ 2.18 µg/mL)	–
COc1cc(C=NNC(=N)NN=Cc2ccc(O)c(OC)c2)ccc1O [Compound 47]	–	–	IC50 [1, 8]: > 25000 nM
COc1cc(C=NNC(=N)NN=Cc2cc(Br)c(OC)c(OC)c2)cc(Br)c1OC.Cl [Compound 42]	–	–	IC50 [1, 8]: 2700 nM; Selectivity ratio [1, 3]: >9.3; Toxicity (Y/N) (Vero cells; [4]): Y^[e] (compounds are indicated as toxic if >10 % cells are affected)
CCCc1ccc(C=NNC(=N)NN=Cc2ccc(CCC)cc2)cc1 [Compound 19]	800	8.3 (≈ 2.9 µg/mL)	–
Cl.N=C(NN=Cc1ccccc1Cl)NN=Cc1ccccc1Cl [Compound 12]	12400	25	Activity against gram negative bacteria / E. coli (Escherichia coli): no antibacterial activity
CN(C)c1ccc(C=NN=C(N)NN=Cc2ccc(N(C)C)cc2)cc1 [Compound 33]	–	–	Antigiardial activity MLC (24 h) ([1]; 24 h): 25 µM; IC50 [1, 5]: 1100 nM
Cc1ncc([N+](=O)[O-])n1CCO [Metronidazole, metronidazole, reference compound]	3800	8.3 (≈ 1.42 µg/mL)	Antigiardial activity at 5 h ([1]; 5 h): inactive; Selectivity ratio [1, 6]: >6.6; treatment success / reported efficacy (Giardia): 80–90%
N=C(NN=Cc1cccc(O)c1)NN=Cc1cccc(O)c1 [Compound 28]	> 25000	–	–
